# According to US20200352918A1, “COMPOUNDS AND METHODS FOR TREATING OR PREVENTING FIBROSIS” (priority 2019, published 2020):
# Experiments:
# Format in all cases: cell-based, human
# [1] = system: iFA model; experiment: Fibrotic marker, cytokine and repair modulator expression in the iFA model (qPCR, immunoblotting, luminex, immunofluorescence)
# Procedure: The Milliplex human cytokine/chemokine Panel IV, human TIMP Panel 2, and human TGFβ 1,2,3 magnetic bead kits (EMD Millipore) were used per manufacturer's instructions. Prior to plating, all samples tested for human TGFβ only were activated and neutralized with 1.0 N HCl and 1.0 N NaOH, respectively. Briefly, 25 μl of undiluted or treated cell culture supernatant samples were mixed with 25 μl of magnetic beads and allowed to incubate overnight at 4° C. while shaking. After washing the plates with wash buffer in a Biotek ELx405 washer, 25 μl of biotinylated detection antibody was added and incubated for 1 hour at room temperature while shaking. 25 μl of streptavidin-phycoerythrin conjugate was then added to the reaction mixture and incubated for another 30 minutes at room temperature while shaking. Following additional washes, beads were resuspended in sheath fluid, and fluorescence was quantified using a Luminex 200 instrument. Similarly, a custom magnetic Luminex assay kit of select analytes (R&D Systems) was used per manufacturer's instructions. Cell culture supernatants were prepared with a 2-fold dilution. 50 μl of diluted sample were added to 50 μl of provided micro-particle cocktail and incubated for 2 hours at room temperature while shaking. After washing with wash buffer, 50 μl of biotin antibody cocktail was added and incubated for 1 hour at room temperature while shaking. Following additional washes, 50 μl of diluted Streptavidin-PE was then added for incubation for 30 minutes at room temperature while shaking. The plate was then washed again and the micro-particles resuspended in 100 μl wash buffer. After an additional 2-minute incubation while shaking, the data was acquired using a Luminex 200 instrument.
# In-vitro cultures of PF and cells in the iFA model were washed once with PBS and total RNA from the samples were extracted using the RNeasy Mini Kit (Qiagen) according to the manufacturer's instructions. For the lung slice cultures (LSC), tissues were snap-frozen after treatment and stored at −80° C. until RNA isolation. Lung slices were homogenized using a handheld homogenizer and passing the homogenate through a Qiashredder (Qiagen). Total RNA from the LSC and cells from the disease model were extracted using the RNeasy Mini Kit (Qiagen) according to the manufacturer's instructions. The RNA concentrations were measured on a NanoDrop ND-1000 spectrophotometer. Single-stranded cDNA was synthesized from 200 ng of total RNA using Superscript IV and random hexamer primers (Invitrogen) in a volume of 20 μl. cDNA was then used for qRT-PCR analysis. PCR reactions were performed using Taqman Gene Expression Assay mix (Applied Biosystems) according to the manufacturer's instructions.
# qRT-PCR reactions were performed using the StepOnePlus (Applied Biosystems). Relative gene expression was calculated using the 2^−ΔΔCt method, with 18S Cat. #4331182 (Invitrogen) as housekeeping gene. For the RT^2qPCR arrays, cDNA from DMSO and AA5 treated iFA and was added to the RT^2 qPCR iTaq Universal SYBR green Master Mix (Biorad). 20 μl of the experimental cocktail was added to each well of the Fibrosis PCR (Qiagen). Real-Time PCR was performed on the StepOnePlus qPCR system (Applied Biosystems) using SYBR green detection according to the manufacturer's recommendations. All data from the PCR was collected and analyzed by SA Bioscience's PCR Array Data Analysis Web Portal.
# (§1) Cells grown on coverslips were fixed in 4% paraformaldehyde (PFA) for 10 min at room temperature and washed three times with TBS buffer supplemented with 0.1% Tween 20 (TBST). Lung samples were fixed overnight in 4% PFA at room temperature, washed 3 times in PBS, dehydrated and then infiltrated and embedded with wax. Five-micron sections were collected on glass slides, deparaffinized and rehydrated. Heat-induced epitope retrieval was performed using 1 mM EDTA in a microwave. […]
# [2] = system: iFA model; experiment: In situ cell elasticity by atomic force microscopy in the iFA model; conditions: AA5 vs DMSO-treated iFA model
# Procedure: Tapping mode AFM using the Bruker BioScope Catalyst Atomic Force coupled with Zeiss LSMS Confocal Fluorescence Microscope was used on the cells at 37° C. in cell culture media. AFM deflection images of cells were used in the imaging experiment. In the force measurement, sharp silicon nitride AFM probes (tip radius, 20 nm) were employed (Bruker Corp., USA). The spring constants of AFM tips were calibrated to be 0.10-0.11 N m^−1 and deflection sensitivities were 45-50 nm V^−1, using Thermo K Calibration (Agilent Technologies, USA). The approaching/retracting speed of the AFM tip during the force curve measurement was 6 μm s^−1. Force-distance curves were recorded to obtain cell elasticity (Young's modulus, E) of individual cells. For each time point, at least 20 single cells, 20 cells at the base of the iFA and 20 cells at the tip of the scar were measured with over 15 force-distance curves per cell to obtain significant results. The Young's modulus was calculated via the Scanning Probe Image Processor (SPIP) software (Image Metrology, Denmark) by converting the force-distance curves to force-separation curves and fitting the Sneddon variation of the Hertz model, which describes conical tips indenting elastic samples.
# [3] = system: HMGB1; experiment: HMGB1 (ELISA, IF) in the iFA model
# Procedure: Conditioned media at different time points of progression of the phenotype, and on prevention and resolution drug treatments were collected and quantification of protein was performed using the IBL man HMGB1 ELISA kit or LSBio NPTX1 ELISA kits per manufacturer's instructions. 10 μl of each supernatant sample was added to anti-HMGB1 polyclonal antibody-coated plate and incubated for 20 hours at 37° C. All liquid was then removed and the plate manually washed 5 times with wash buffer. 100 μl of enzyme conjugate was then added and incubated for 2 hours at room temperature. After washing again, color solution was added at 100 μl per well and incubated for 30 minutes at room temperature. Following an additional five washes, the plate was incubated with 90 μl of TMB substrate for another 15 minutes at 37° C. in the dark. The reaction was then stopped by addition 100 μl of stop solution. Absorbance was measured at 450 nm using a SpectraMAX Plate Reader. Data was analyzed using SoftMax Pro software.
# as §1, with “rehydrated.” for “rehydrated. Heat-induced epitope retrieval was performed using 1 mM EDTA in a microwave.”
smiles,measurement,setting,value
Cc1c(C(=O)Nc2nc3ccccc3s2)sc2nc3cc4c(cc3cc12)OCO4 [AA5],"Secreted levels of acute-phase response cytokines IL-6, IL-8 and IFNα","[1]; AA5-prevention and AA5-resolution, luminex",increase
same,PTX3 protein,"[1]; AA5-prevention and AA5-resolution, over time",progressively increasing amounts
same,"Acute-phase signaling secondary cytokines MCP-3, VEGF, CSF3 and GRO",[1]; AA5 treated iFA model,increase
same,"Gene expression of fibrotic markers α-SMA, Collagen I, TIMP-3 and POSTN","[1]; AA5 treatment, confirmed by immunoblotting, luminex, immunofluorescence",down-regulation
same,Modulators of tissue repair PTX3 and CD163L1,[1]; within 24 hours of AA5-resolution treatment,upregulation
same,Cell stiffness,[2],significantly decreased
same,Cytoplasmic HMGB1 (IF staining),[3]; AA5-prevention and AA5-resolution vs DMSO,absence or significantly reduced cytoplasmic HMGB1
same,Secreted levels of HMGB1,"[3]; iFA model, AA5p and AA5r vs DMSO",attenuated
